SMILES strings stand for the structures. Numbered stars: 1 amine (or outer) side, 2 acyl side, 3 side chain; on linkers, the order of the positions; unused ones are H or OH. Bridge positions count the residues as written; N and C are the ends. Square brackets hold non-standard residues; d marks the D form. Side chains are listed from the residue outwards. Peptide text beside a SMILES is read from it. * marks the point of attachment. CH2CO(D-glucamine) = O=C(C*)NC[C@H](O)[C@@H](O)[C@H](O)[C@H](O)CO; NH(1-deoxy-D-glucityl) = OC[C@@H](O)[C@@H](O)[C@H](O)[C@@H](O)CN*; CH2CON(CH2CH2)2NCH2COOH = O=C(O)CN1CCN(C(=O)C*)CC1; Nle(6-morpholino) = N[C@@H](CCCCN1CCOCC1)C(=O)O; Trp(7-aza) = N[C@@H](Cc1c[nH]c2ncccc12)C(=O)O; NMePhe(3-Cl) = CN[C@@H](Cc1cccc(Cl)c1)C(=O)O; Piperazinyl(4-CH2COOH) = O=C(O)CN1CCN(*)CC1; 3Pal(6-NH2) = Nc1ccc(C[C@H](N)C(=O)O)cn1; NMeW = CN[C@@H](Cc1c[nH]c2ccccc12)C(=O)O; NMeY = CN[C@@H](Cc1ccc(O)cc1)C(=O)O; 4Pal = N[C@@H](Cc1ccncc1)C(=O)O; PEG4 = NCCOCCOCCOCCOCCC(=O)O; CO = O=C([*:1])[*:2]

For test [1], the target named is T1, human transferrin receptor (hTfR) (Homo sapiens, UniProt P02786). Nature of the test: SPR measurement under pH 6.0 conditions (Biacore T200, NTA chip, immobilized hTfR). Type of test: binding. To be noted: read-out: hTfR SPR pH6.0 KD. As to the method:
(§1) Molecular interactions between the synthesized peptides and the transferrin receptor (hTfR) were evaluated by surface plasmon resonance (SPR) using the following method. The specific assay procedure is described below.
An NTA sensor chip (Cytiva) was inserted in a Biacore T200 (Cytiva), a priming operation was performed 3 times with a running buffer: HBS-P+ pH 6.0 (Cytiva), and an equilibrium state was created at a flow rate of 30 µL/min. A ligand immobilization operation was carried out at a flow rate of 10 µL/min.
The surface of the NTA sensor chip was washed with 350 mM EDTA solution, nickel ions were loaded into the carbomethyldextran chains of the sensor chip with a 500 µM aqueous nickel chloride solution, and then washing was performed with 3 mM EDTA solution. After mixing 50 µL of each of 60 mM EDC solution (Cytiva) and 650 mM NHS solution (Cytiva), the mixture was reacted for 420 seconds at a flow rate of 10 µL/min. 150 µL of 0.2 µM hTfR solution was prepared by diluting with 10 mM acetic acid solution (pH 5.0), and reacted for 420 seconds at a flow rate of 10 µL/min to immobilize hTfR on the NTA sensor chip. For the human transferrin receptor (hTfR), the recombinant hTfR described in Example 2 of WO2018/124121 was used. After immobilization, capping was performed by reacting with 1.0 M ethanolamine aqueous solution (Cytiva) at a flow rate of 10 µL/min for 420 seconds. Peptide lysate prepared in DMSO to 10 mM was diluted with the running buffer to a final concentration of 10 µM peptide lysate, and then peptide solutions of 250 nM, 125 nM, 62.5 nM, 25 nM, and 12.5 nM were prepared. The kinetics of the peptide against hTfR was obtained by SPR measurement using the above samples.
(§2) The kinetic evaluation model was single-cycle kinetics, and curve fitting was performed using Biacore T200 Evaluation Software Version 3.0 (Cytiva). The binding of the peptide to hTfR was evaluated by performing curve fitting on the obtained sensorgram by the least squares method and obtaining the kon value, the koff value, and the KD value.

Test [2] deals with T1, human transferrin receptor (hTfR). Nature of the test: SPR measurement under pH 7.4 conditions (Biacore T200, CM3 chip, hTfR captured by His Tag antibody). Type of test: binding. As to the method: as §1
An CM3 sensor chip (Cytiva) was inserted into BiacoreT200 (Cytiva), then a priming operation was performed three times by using a running buffer: HBS-P+, pH7.4 (Cytiva), and an equilibrium state was created at a flow rate of […]. Ligand immobilization was performed at a flow rate of 10 µL/min. After mixing 50 µL each of 60 mM EDC solution (Cytiva) and 650 mM NHS solution (Cytiva), the mixture was reacted at a flow rate of 10 µL/min for 420 seconds. 150 µL of […] THE His Tag Antibody, mAb, Mouse (GenScript) was prepared by diluting with 10 mM acetic acid solution (pH 5.0), and reacted at a flow rate of 10 µL/ min for 420 seconds. Then, THE His Tag Antibody, mAb, Mouse (GenScript) was immobilized as a capture molecule on the CM3 sensor chip. After immobilization, capping was performed by reacting with 1.0 M ethanolamine solution (Cytiva) at a flow rate of 10 µL/min for 420 seconds. 300 nM hTfR was captured at a flow rate of 10 µL/min, a peptide solution prepared at 10 mM in DMSO was diluted with running buffer to achieve a final concentration of 10 µM, and peptide solutions at 250 nM, 125 nM, 62.5 nM, 25 nM, and 12.5 nM were prepared. . The peptide samples were reacted at a flow late of 30 µL/min for 120 seconds, followed by dissociation for 600 seconds. The kinetics of the peptide against hTfR was obtained by SPR measurement for the above samples.
as §2
Background: Surface plasmon resonance follows binding to a sensor surface in real time, without labels.

T1 sequence (P02786 whole entry): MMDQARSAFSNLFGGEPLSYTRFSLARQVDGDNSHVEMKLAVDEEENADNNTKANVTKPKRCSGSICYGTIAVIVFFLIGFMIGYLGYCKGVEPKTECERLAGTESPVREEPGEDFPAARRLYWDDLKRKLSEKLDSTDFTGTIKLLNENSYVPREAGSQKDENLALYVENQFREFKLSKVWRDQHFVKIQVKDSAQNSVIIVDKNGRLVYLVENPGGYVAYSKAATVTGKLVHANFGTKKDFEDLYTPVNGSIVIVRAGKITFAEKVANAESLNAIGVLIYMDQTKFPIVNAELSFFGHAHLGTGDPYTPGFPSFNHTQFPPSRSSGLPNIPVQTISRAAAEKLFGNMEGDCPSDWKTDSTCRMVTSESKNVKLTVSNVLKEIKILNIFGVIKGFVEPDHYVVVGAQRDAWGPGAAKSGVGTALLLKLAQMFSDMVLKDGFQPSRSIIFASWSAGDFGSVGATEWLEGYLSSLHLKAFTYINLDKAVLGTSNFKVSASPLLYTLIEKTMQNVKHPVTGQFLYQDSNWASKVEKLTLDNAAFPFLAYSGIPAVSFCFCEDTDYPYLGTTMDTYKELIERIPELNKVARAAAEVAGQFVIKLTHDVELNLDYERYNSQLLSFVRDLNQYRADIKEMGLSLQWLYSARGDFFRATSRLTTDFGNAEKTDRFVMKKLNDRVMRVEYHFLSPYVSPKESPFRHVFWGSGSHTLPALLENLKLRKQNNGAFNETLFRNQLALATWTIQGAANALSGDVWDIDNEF

A word on the Kd: it is a measure of binding affinity in units of concentration. Regarding `CC[C@H](C)[C@@H]1NC(=O)[C@H](Cc2ccc(O)cc2)NC(=O)[C@H](Cc2ccc(N)nc2)NC(=O)[C@H](CC(N)=O)NC(=O)[C@H](Cc2c[nH]c3ccccc23)NC(=O)[C@H](C(C)C)NC(=O)[C@H](Cc2ccccc2)N(C)C(=O)[C@H](C(C)C)NC(=O)[C@H](C)NC(=O)CSC[C@@H](C(=O)NCCOCCOCCOCCOCCC(N)=O)NC(=O)[C@H](Cc2ccc(O)cc2)N(C)C(=O)[C@H](Cc2ccc(O)cc2)NC(=O)[C@H](CCCNC(=N)N)NC(=O)[C@H](CCCCN)NC(=O)[C@H]([C@@H](C)CC)NC1=O` [compound 123], the Kd in test [1] (SPR, pH 6.0, peptide with the linker named in the table) is 17.4 nM.
Turning to `CC[C@H](C)[C@@H]1NC(=O)[C@H](Cc2ccc(OC)cc2)NC(=O)[C@H](CCCNC(=N)N)NC(=O)[C@H](CC(N)=O)NC(=O)[C@H](Cc2c[nH]c3ccccc23)N(C)C(=O)[C@H](C(C)C)NC(=O)[C@H](Cc2cccc(Cl)c2)N(C)C(=O)[C@H](C(C)C)NC(=O)[C@H](C)NC(=O)CSC[C@@H](C(=O)NCCOCCOCCOCCOCCC(N)=O)NC(=O)[C@H](Cc2ccc(O)cc2)N(C)C(=O)[C@H](Cc2ccccc2)NC(=O)[C@H](CCCNC(=N)N)NC(=O)[C@H](CCCCN)NC(=O)[C@H]([C@@H](C)CC)NC1=O` [compound 173] ({CH2CO}-AV[NMePhe(3-Cl)]V[NMeW]NRY(Me)IIKRF[NMeY]C[PEG4]-NH2; thioether N-15), the Kd in test [1] (pH 6.0, single-cycle kinetics) came to 13.3 nM.
Take `CC[C@H](C)[C@@H]1NC(=O)[C@H](Cc2ccc(OCC(=O)NC[C@H](O)[C@@H](O)[C@H](O)[C@H](O)CO)cc2)NC(=O)[C@H](Cc2ccc(N)nc2)NC(=O)[C@H](CC(N)=O)NC(=O)[C@H](Cc2c[nH]c3ncccc23)NC(=O)[C@H](C(C)C)NC(=O)[C@H](Cc2cccc(Cl)c2)N(C)C(=O)[C@H](C(C)C)NC(=O)[C@H](C)NC(=O)CSC[C@@H](C(=O)NCCOCCOCCOCCOCCC(N)=O)NC(=O)[C@H](Cc2ccc(O)cc2)N(C)C(=O)[C@H](Cc2ccncc2)NC(=O)[C@H](CCCCN2CCOCC2)NC(=O)[C@H](CCC(=O)NC[C@H](O)[C@@H](O)[C@H](O)[C@H](O)CO)NC(=O)[C@H]([C@@H](C)CC)NC1=O` [compound 13] ({CH2CO}-AV[NMePhe(3-Cl)]V[Trp(7-aza)]N[3Pal(6-NH2)]Y(CH2CO(D-glucamine))IIE(NH(1-deoxy-D-glucityl))[Nle(6-morpholino)][4Pal][NMeY]C[PEG4]-NH2; thioether N-15): the Kd in test [2] (pH 7.4, single-cycle kinetics, read-out: hTfR SPR pH7.4 KD) amounted to 11.4 nM.
In the case of `CC[C@H](C)[C@@H]1NC(=O)[C@H](Cc2ccc(OCC(=O)N3CCN(CC(=O)O)CC3)cc2)NC(=O)[C@H](Cc2ccc(N)nc2)NC(=O)[C@H](CC(N)=O)NC(=O)[C@H](Cc2c[nH]c3ncccc23)NC(=O)[C@H](C(C)C)NC(=O)[C@H](Cc2cccc(Cl)c2)N(C)C(=O)[C@H](C(C)C)NC(=O)[C@H](C)NC(=O)CSC[C@@H](C(=O)NCCOCCOCCOCCOCCC(N)=O)NC(=O)[C@H](Cc2ccc(O)cc2)N(C)C(=O)[C@H](Cc2ccncc2)NC(=O)[C@H](CCCCN2CCOCC2)NC(=O)[C@H](CCCCNC(=O)N2CCN(CC(=O)O)CC2)NC(=O)[C@H]([C@@H](C)CC)NC1=O` [compound 157] ({CH2CO}-AV[NMePhe(3-Cl)]V[Trp(7-aza)]N[3Pal(6-NH2)]Y(CH2CON(CH2CH2)2NCH2COOH)IIK([CO-Piperazinyl(4-CH2COOH)])[Nle(6-morpholino)][4Pal][NMeY]C[PEG4]-NH2; thioether N-15), the Kd in test [2] (SPR, pH 7.4, Table 2-1-2, read-out: hTfR SPR pH7.4 KD(n M)) is 15 nM.

Values taken from patent publication EP4667483A1, “HUMAN TRANSFERRIN RECEPTOR-BINDING PEPTIDE” (JCR Pharmaceuticals Co., Ltd., priority 2023, dated 2024).
